Columns and labels:
[1] = Solubility temperature and crystal-free incorporation into cosmetic oils; type: physicochemical; details: for Appearance at RT: after cooling
Protocol: For this purpose, the solubility temperatures of the sphingolipids were ascertained: A final concentration of 0.1% ceramide in cosmetic oil was chosen. The ceramide compositions were heated and stirred gradually in the cosmetic oils in a beaker on a hotplate. The solubility temperature was attained as soon as the solution was clear. Subsequently, the mixture was stirred at the solubility temperature ascertained for 1 hour. After it had cooled down to room temperature, the formulation was examined.

[2] = Hair breakage measurement (Cyclic Tester), repair after acidic straightening; details: acid-straightened ethnic hair, test conditioner, 5 treatments, FIG. 3
Protocol: Ethnic hair was acid-straightened and aftertreated with a conditioner that contained one of the claimed compositions with elevated triglyceride content, consisting of: 10% olive oil-based ceramide (Example 2). For comparison, the process was conducted with a corresponding amount of pure ceramide NG or pure olive oil.
The repair effect and the boosting of the CMC complex by means of Hair fatigue alpha were measured.
Ethnic hair was chemically straightened. For this purpose, an acidic standard formulation having a pH of about 1-2 was used in combination with the use of a straightening iron. Subsequently, the hair was treated as follows: • 1. Washing with a shampoo consisting of sodium lauryl ether sulfate and cocamidopropylbetaine. • 2. Application of the test conditioner; the contact time was 5 min. Subsequently, the hair tresses were rinsed under flowing tap water at a temperature of 37° C. for 1 min. • 3. Drying of the hair tresses with a hairdryer for 3 minutes.
These three treatment steps were conducted a total of 5×. […]
For quantification of the repair effect, a hair breakage measurement was conducted (Cyclic Tester, Diastron Limited, UK). […] The number of extension cycles survived is recorded and serves to calculate the probability of survival. […]

[3] = 0.1% ceramide in Mineral Oil (non-polar)
[4] = 0.1% ceramide in Octyldodecanol (polar)
[5] = 0.1% ceramide in TEGOSOFT APM (polar)
[6] = 0.1% ceramide in TEGOSOFT CT (polar-medium polar)
[7] = 0.1% ceramide in TEGOSOFT M (medium polar)
[8] = 0.1% ceramide in TEGOSOFT OS (non-polar)

Row | Solubility temperature [1, 3] | Appearance at RT [1, 3] | Solubility temperature [1, 4] | Appearance at RT [1, 4] | Solubility temperature [1, 5] | Appearance at RT [1, 5] | Solubility temperature [1, 6] | Appearance at RT [1, 6] | Solubility temperature [1, 7] | Appearance at RT [1, 7] | Solubility temperature [1, 8] | Appearance at RT [1, 8] | Substance | repair effect (probability of survival in the hair breakage test) [2]
1 | 110 °C | crystals | 70 °C | crystals | 65 °C | crystals | 95 °C | crystals | 90 °C | crystals | 100 °C | crystals | ceramide NP [Pure ceramide NP] | –
2 | – | – | – | – | – | – | – | – | – | – | – | – | ceramide NG | not able to achieve any repair effect

— US11939612B2, “Process for preparing sphingolipids” (Evonik Operations GmbH, priority 2018, dated 2024)
